Structures can show the parent of a compound that is named as a salt.
What follows are molecules tested on panel of 290 distinct kinases (321 in the larger panel), excluding mutant variants. Conditions: asterisk: panel of 321 distinct kinases.

Row | SMILES | S35
1 | COCCOc1cc2ncnc(Oc3cccc(NC(=O)Nc4cc(C(F)(F)F)n(C)n4)c3)c2cc1OC [Ex 208, 1-{3-[6-methoxy-7-(2-methoxyethoxy)quinazolin-4-yloxy]phenyl}-3-[1-methyl-5-(trifluoromethyl)-1H-pyrazol-3-yl]urea] | C* (0.20 < C ≦ 0.40)
2 | COc1cc2ncnc(Sc3cccc(NC(=O)Nc4ccc(OC)c(C(F)(F)F)c4)c3)c2cc1OCCCN1CCS(=O)(=O)CC1 [Ex 246, 1-(4-methoxy-3-(trifluoromethyl)phenyl)-3-(3-(7-methoxy-6-(3-(4,4-dioxothiomorpholino)propoxy)quinazolin-4-ylthio)phenyl)urea] | C* (0.20 < C ≦ 0.40)
3 | COCCOc1cc2ncnc(Sc3cccc(NC(=O)Nc4ccc(C(F)(F)F)c(OC)c4)c3)c2cc1OC [Ex 233, 1-(3-methoxy-4-(trifluoromethyl)phenyl)-3-(3-(6-methoxy-7-(2-methoxyethoxy)quinazolin-4-ylthio)phenyl)urea] | C* (0.20 < C ≦ 0.40)
4 | COCCOc1cc2ncnc(Sc3cccc(NC(=O)Nc4cc(C(F)(F)F)n(-c5ccccc5)n4)c3)c2cc1OC [Ex 244, 1-{3-[6-methoxy-7-(2-methoxyethoxy)quinazolin-4-ylthio]phenyl}-3-[1-phenyl-5-(trifluoromethyl)-1H-pyrazol-3-yl]urea] | C* (0.20 < C ≦ 0.40)
5 | CCOC(=O)Cn1nc(C(C)(C)C)cc1NC(=O)Nc1cccc(Oc2ncnc3cc(OCCOC)c(OC)cc23)c1 [Ex 224, ethyl 2-[3-tert-butyl-5-(3-{3-[6-methoxy-7-(2-methoxyethoxy)quinazolin-4-yloxy]phenyl}ureido)-1H-pyrazol-1-yl]acetate hydrochloride] | A* (A ≦ 0.10)
6 | COc1cc2c(Oc3cccc(NC(=O)Nc4cc(C(C)(C)F)no4)c3)ncnc2cc1OCCN1CCOCC1 [Ex 251, 1-(3-(2-fluoropropan-2-yl)isoxazol-5-yl)-3-(3-(6-methoxy-7-(2-morpholinoethoxy)quinazolin-4-yloxy)phenyl)urea] | C* (0.20 < C ≦ 0.40)
7 | COCCOc1cc2ncnc(Sc3cccc(NC(=O)Nc4cc(C(C)(C)F)no4)c3)c2cc1OC [Ex 234, 1-(3-(2-fluoropropan-2-yl)isoxazol-5-yl)-3-(3-(6-methoxy-7-(2-methoxyethoxy)quinazolin-4-ylthio)phenyl)urea] | C* (0.20 < C ≦ 0.40)
8 | COCCOc1cc2ncnc(Oc3cccc(NC(=O)Nc4cc(C(C)(C)F)no4)c3)c2cc1OC [Ex 218, 1-(3-(2-fluoropropan-2-yl)isoxazol-5-yl)-3-(3-(6-methoxy-7-(2-methoxyethoxy)quinazolin-4-yloxy)phenyl)urea] | C* (0.20 < C ≦ 0.40)
9 | COCCOc1cc2ncnc(Oc3cccc(NC(=O)Nc4cc(C5CCOCC5)no4)c3)c2cc1OC [Ex 216, 1-(3-(6-methoxy-7-(2-methoxyethoxy)quinazolin-4-yloxy)phenyl)-3-(3-(tetrahydro-2H-pyran-4-yl)isoxazol-5-yl)urea] | B* (0.10 < B ≦ 0.20)

Same assay, conditions: kinase selectivity score, value marked * (larger kinase panel); class symbols

Row | SMILES | S35
10 | COc1cc2ncnc(Oc3cccc(NC(=O)Nc4ccc(C(F)(F)F)c(F)c4)c3)c2cc1OC [Ex 150, 1-(3-(6,7-dimethoxyquinazolin-4-yloxy)phenyl)-3-(3-fluoro-4-(trifluoromethyl)phenyl)urea] | C* (0.20 < C ≦ 0.40)

Same assay, conditions: no asterisk: panel of 290 distinct kinases

Row | SMILES | S35
11 | COCCOc1cc2ncnc(Sc3cccc(NC(=O)Nc4cc(C(C)(C)C)no4)c3)c2cc1OCCOC [Ex 247, 1-(3-(6,7-bis(2-methoxyethoxy)quinazolin-4-ylthio)phenyl)-3-(3-tert-butylisoxazol-5-yl)urea] | C (0.20 < C ≦ 0.40)
12 | COc1cc2ncnc(Oc3ccc(Cl)c(NC(=O)Nc4cc(C(C)(C)C)on4)c3)c2cc1OC [Ex 299, 1-(5-tert-butylisoxazol-3-yl)-3-(2-chloro-5-(6,7-dimethoxyquinazolin-4-yloxy)phenyl)urea] | C (0.20 < C ≦ 0.40)
13 | COc1cc2ncnc(Oc3cc(NC(=O)Nc4cc(C(C)(C)C)on4)c(F)cc3F)c2cc1OC [Ex 270, 1-(5-tert-butylisoxazol-3-yl)-3-(5-(6,7-dimethoxyquinazolin-4-yloxy)-2,4-difluorophenyl)urea] | D (D > 0.40)
14 | COc1cc2c(Oc3cccc(NC(=O)Nc4cc(C(C)(C)C)on4)c3)ncnc2cc1OCCCN1CCS(=O)(=O)CC1 [Ex 256, 1-(5-tert-butyl-isoxazol-3-yl)-3-(3-{7-[3-(1,1-dioxo-thiomorpholin-4-yl)-propoxy]-6-methoxy-quinazolin-4-yloxy}-phenyl)-urea] | D (D > 0.40)
15 | COc1cc2ncnc(Oc3ccc(F)c(NC(=O)Nc4cc(C(C)(C)C)on4)c3)c2cc1OC [Ex 367, 1-(5-tert-butylisoxazol-3-yl)-3-(5-(6,7-dimethoxyquinazolin-4-yloxy)-2-fluorophenyl)urea] | D (D > 0.40)
16 | CCOc1cc2ncnc(Oc3cccc(NC(=O)Nc4cc(C(C)(C)C)nn4-c4ccccc4)c3)c2cc1OC [Ex 387, 1-(3-tert-butyl-1-phenyl-1H-pyrazol-5-yl)-3-(3-(7-ethoxy-6-methoxyquinazolin-4-yloxy)phenyl)urea] | D (D > 0.40)
17 | COc1cc2ncnc(Sc3cccc(NC(=O)Nc4cc(C(C)(C)C)nn4-c4ccc(C)cc4)c3)c2cc1OC [Ex 275, 1-(3-tert-butyl-1-p-tolyl-1H-pyrazol-5-yl)-3-(3-(6,7-dimethoxyquinazolin-4-ylthio)phenyl)urea] | D (D > 0.40)
18 | COc1cc2ncnc(Oc3cccc(NC(=O)Nc4cc(C(C)(C)C)nn4-c4ccc(C(F)(F)F)cc4)c3)c2cc1OC [Ex 373, 1-(3-tert-butyl-1-(4-(trifluoromethyl)phenyl)-1H-pyrazol-5-yl)-3-(3-(6,7-dimethoxyquinazolin-4-yloxy)phenyl)urea] | C (0.20 < C ≦ 0.40)
19 | COc1cc2ncnc(Oc3cccc(NC(=O)Nc4cc(C(F)(F)F)nn4-c4ccccc4)c3C)c2cc1OC [Ex 291, 1-(3-(6,7-Dimethoxyquinazolin-4-yloxy)-2-methylphenyl)-3-(1-phenyl-3-(trifluoromethyl)-1H-pyrazol-5-yl)urea] | B (0.10 < B ≦ 0.20)
20 | CCOc1cc2c(Sc3cccc(NC(=O)Nc4cc(C(C)(C)F)no4)c3)ncnc2cc1OC [Ex 394, 1-(3-(6-ethoxy-7-methoxyquinazolin-4-ylthio)phenyl)-3-(3-(2-fluoropropan-2-yl)isoxazol-5-yl)urea] | C (0.20 < C ≦ 0.40)
21 | COCCOc1cc2ncnc(Sc3cccc(NC(=O)Nc4cc(C(C)(C)C)nn4-c4ccc(C)cc4)c3)c2cc1OC [Ex 277, 1-(3-tert-butyl-1-p-tolyl-1H-pyrazol-5-yl)-3-(3-(6-methoxy-7-(2-methoxyethoxy)quinazolin-4-ylthio)phenyl)urea] | D (D > 0.40)
22 | CCOc1cc2ncnc(Oc3cccc(NC(=O)Nc4cc(C(F)(F)F)nn4-c4ccccc4)c3)c2cc1OC [Example 384, 1-(3-(7-ethoxy-6-methoxyquinazolin-4-yloxy)phenyl)-3-(1-phenyl-3-(trifluoromethyl)-1H-pyrazol-5-yl)urea] | C (0.20 < C ≦ 0.40)
23 | COc1cc2ncnc(Oc3cc(NC(=O)Nc4cc(C(C)(C)C)nn4-c4ccccc4)c(F)cc3F)c2cc1OC [Ex 273, 1-(3-tert-butyl-1-phenyl-1H-pyrazol-5-yl)-3-(5-(6,7-dimethoxyquinazolin-4-yloxy)-2,4-difluorophenyl)urea] | D (D > 0.40)
24 | COc1cc2ncnc(Oc3cccc(NC(=O)Nc4cc(C(C)(C)C)nn4-c4cccc(C(F)(F)F)c4)c3)c2cc1OC [Ex 379, 1-(3-tert-butyl-1-(3-(trifluoromethyl)phenyl)-1H-pyrazol-5-yl)-3-(3-(6,7-dimethoxyquinazolin-4-yloxy)phenyl)urea] | D (D > 0.40)
25 | COc1cc2ncnc(Oc3cccc(NC(=O)Nc4cc(C(C)(C)C)nn4-c4ccc(C(C)(C)C)cc4)c3)c2cc1OC [Ex 369, 1-(3-tert-butyl-1-(4-tert-butylphenyl)-1H-pyrazol-5-yl)-3-(3-(6,7-dimethoxyquinazolin-4-yloxy)phenyl)urea] | C (0.20 < C ≦ 0.40)
26 | COc1cc2ncnc(Sc3cccc(NC(=O)Nc4cc(C(F)(F)F)no4)c3)c2cc1OC [Ex 382, 1-(3-(6,7-dimethoxyquinazolin-4-ylthio)phenyl)-3-(3-(trifluoromethyl)isoxazol-5-yl)urea] | C (0.20 < C ≦ 0.40)
27 | COc1cc2ncnc(Oc3cccc(NC(=O)Nc4cc(C(C)(CF)CF)on4)c3F)c2cc1OC [Ex 297, 1-(5-(1,3-difluoro-2-methylpropan-2-yl)isoxazol-3-yl)-3-(3-(6,7-dimethoxyquinazolin-4-yloxy)-2-fluorophenyl)urea] | C (0.20 < C ≦ 0.40)
28 | COc1cc2ncnc(Oc3cc(NC(=O)Nc4cc(C(C)(CF)CF)on4)ccc3F)c2cc1OC [Ex 294, 1-(5-(1,3-difluoro-2-methylpropan-2-yl)isoxazol-3-yl)-3-(3-(6,7-dimethoxyquinazolin-4-yloxy)-4-fluorophenyl)urea] | D (D > 0.40)
29 | COc1cc2ncnc(Oc3cccc(NC(=O)Nc4cc(C(C)(C)C)nn4-c4ccc(C)cc4)c3C)c2cc1OC [Ex 288, 1-(3-tert-butyl-1-p-tolyl-1H-pyrazol-5-yl)-3-(3-(6,7-dimethoxyquinazolin-4-yloxy)-2-methylphenyl)urea] | C (0.20 < C ≦ 0.40)
30 | COc1cc2ncnc(Oc3cccc(NC(=O)Nc4cc(C(C)(C)C(F)(F)F)on4)c3)c2cc1OC [Ex 259, 1-(3-(6,7-dimethoxyquinazolin-4-yloxy)phenyl)-3-(5-(1,1,1-trifluoro-2-methylpropan-2-yl)isoxazol-3-yl)urea] | C (0.20 < C ≦ 0.40)
31 | COc1cc2ncnc(Sc3cccc(NC(=O)Nc4cc(C(C)(C)C)nn4-c4cccc(C(F)(F)F)c4)c3)c2cc1OC [Ex 380, 1-(3-tert-butyl-1-(3-(trifluoromethyl)phenyl)-1H-pyrazol-5-yl)-3-(3-(6,7-dimethoxyquinazolin-4-ylthio)phenyl)urea] | C (0.20 < C ≦ 0.40)
32 | COc1cc2ncnc(Oc3cccc(NC(=O)Nc4cc(C(C)(C)F)no4)c3F)c2cc1OC [Ex 296, 1-(3-(6,7-dimethoxyquinazolin-4-yloxy)-2-fluorophenyl)-3-(3-(2-fluoropropan-2-yl)isoxazol-5-yl)urea] | B (0.10 < B ≦ 0.20)
33 | CCOc1cc2ncnc(Oc3cccc(NC(=O)Nc4cc(C(C)(CF)CF)on4)c3)c2cc1OC [Ex 386, 1-(5-(1,3-difluoro-2-methylpropan-2-yl)isoxazol-3-yl)-3-(3-(7-ethoxy-6-methoxyquinazolin-4-yloxy)phenyl)urea] | C (0.20 < C ≦ 0.40)

Reference: patent publication US9730937B2, “RAF kinase modulator compounds and methods of use thereof” (AMBIT BIOSCIENCES CORPORATION, priority 2008, dated 2017)
